Assay results as given in ChEMBL document CHEMBL3352383, “Trends and exceptions of physical properties on antibacterial activity for Gram-positive and Gram-negative pathogens” (J Med Chem, 2014).
≈ marks a conversion by molar mass, not a printed value. Values belong to the compound of their own block, whether it stands above or below them.

What was measured:
Escherichia coli [1] = test: Antibacterial activity against tolC-deficient Escherichia coli; assay type: functional; details: for MIC: Escherichia coli
Escherichia coli [2] = test: Antibacterial activity against wild-type Escherichia coli; assay type: functional; details: for MIC: Escherichia coli
Pseudomonas aeruginosa [3] = test: Antibacterial activity against wild-type Pseudomonas aeruginosa; assay type: functional; details: for MIC: Pseudomonas aeruginosa
Pseudomonas aeruginosa [4] = test: Antibacterial activity against MeXABCDXY-deficient Pseudomonas aeruginosa; assay type: functional; details: for MIC: Pseudomonas aeruginosa
[5] = Lipophilicity, log D of the compound; details: octanol/water
Pseudomonas aeruginosa [6] = test: Ratio of MIC for wild-type Pseudomonas aeruginosa to MIC for MeXABCDXY-deficient Pseudomonas aeruginosa; assay type: functional
[7] = Inhibition of Escherichia coli TrmD
Haemophilus influenzae = test: Antibacterial activity against acrB-deficient Haemophilus influenzae; assay type: functional
[8] = Inhibition of Haemophilus influenzae TrmD
[9] = Inhibition of Escherichia coli GlmU
[10] = Inhibition of Haemophilus influenzae GlmU
Escherichia coli [11] = test: Antibacterial activity against tolC-deficient Escherichia coli in presence of 2% HSA; assay type: functional; details: for MIC: Escherichia coli
Escherichia coli [12] = test: Ratio of MIC for wild-type Escherichia coli to MIC for tolC-deficient Escherichia coli; assay type: functional
[13] = Inhibition of Pseudomonas aeruginosa MurC
Staphylococcus aureus [14] = test: Ratio of MIC for wild-type Staphylococcus aureus in presence of 2% HSA to MIC for wild-type Staphylococcus aureus; assay type: functional
Staphylococcus aureus [15] = test: Antibacterial activity against wild-type Staphylococcus aureus; assay type: functional
Escherichia coli [16] = test: Ratio of MIC for […] tolC-deficient Escherichia coli in presence of 2% HSA to MIC for tolC-deficient Escherichia coli in presence of 2% HSA; assay type: functional
Staphylococcus aureus [17] = test: Antibacterial activity against wild-type Staphylococcus aureus in presence of 2% HSA; assay type: functional

- logD [5]: 1.4
Structure (SMILES): N=C(N)SCc1ccc(Cl)c(Cl)c1
- Activity (Escherichia coli [1]): >32 µg/mL
- Activity (Escherichia coli [2]): >32 µg/mL
- Activity (Pseudomonas aeruginosa [3]): 4 µg/mL
- Activity (Pseudomonas aeruginosa [4]): 1 µg/mL

- MIC (Escherichia coli [2]): > 50 µM
- MIC (Pseudomonas aeruginosa [3]): 12.5 µM
- MIC (Pseudomonas aeruginosa [4]): 6.25 µM
Structure (SMILES): N=C(N)SCc1ccc(Cl)cc1
- Ratio (Pseudomonas aeruginosa [6]): 2

- MIC (Escherichia coli [1]): > 64 µg/mL
- IC50 [7]: 17000 nM
- MIC (Haemophilus influenzae): > 64 µg/mL
- IC50 [8]: < 5000 nM
Structure (SMILES): Oc1ncnc2scc(-c3ccccc3)c12

- IC50 [9]: 2100 nM
- MIC (Escherichia coli [1]): > 64 µg/mL
- MIC (Haemophilus influenzae): > 64 µg/mL
- IC50 [10]: 7800 nM
Structure (SMILES): COc1cc(OC)c(S(=O)(=O)N2c3ccccc3CC2C)cc1NC(C)=O (stereo not drawn)

Structure (SMILES): COc1cc(OC)c(S(=O)(=O)N2c3ccccc3Oc3ccccc32)cc1NC(=O)CCC(=O)O
- IC50 [9]: 7 nM
- MIC (Escherichia coli [1]): > 64 µg/mL
- MIC (Haemophilus influenzae): 32 µg/mL (≈ 64.2 µM)
- IC50 [10]: 23 nM

- MIC (Escherichia coli [1]): > 64 µg/mL
- IC50 [7]: 290 nM
- logD [5]: 0.37
- MIC (Haemophilus influenzae): > 64 µg/mL
- IC50 [8]: 420 nM
Structure (SMILES): O=C(NCc1ccc(CN2CC[C@H](O)C2)cc1)c1csc2nc[nH]c(=O)c12

- logD [5]: 4.3
Structure (SMILES): Fc1ccc(COc2cccc(-c3n[nH]cc3-c3ccncc3)c2)cc1
- Activity (Escherichia coli [1]): <0.063 µg/mL
- Activity (Escherichia coli [2]): 8 µg/mL
- Activity (Escherichia coli [11]): 16 µg/mL

- logD [5]: 3.22
Structure (SMILES): CC(C)(C)c1nc(-c2ccc3c(c2)OCCO3)c(-c2ccncc2)[nH]1
- Activity (Escherichia coli [1]): 0.25 µg/mL
- Activity (Escherichia coli [2]): 32 µg/mL
- Activity (Escherichia coli [11]): 4 µg/mL

- logD [5]: 2.3
Structure (SMILES): CC(C)(O)[C@H](NC(=O)c1ccc(C#CC#CC2CC2)cc1)C(=O)NO
- Activity (Escherichia coli [1]): <0.063 µg/mL
- Activity (Escherichia coli [2]): <0.063 µg/mL
- Activity (Pseudomonas aeruginosa [3]): 0.25 µg/mL
- Activity (Pseudomonas aeruginosa [4]): <0.06 µg/mL
- Activity (Escherichia coli [11]): <0.063 µg/mL

- MIC (Escherichia coli [1]): 12.5 µM
- MIC (Escherichia coli [2]): 12.5 µM
- MIC (Pseudomonas aeruginosa [3]): 6.25 µM
- MIC (Pseudomonas aeruginosa [4]): 6.25 µM
Structure (SMILES): NC[C@H]1OB(O)c2ccccc21
- Ratio (Escherichia coli [12]): 1
- Ratio (Pseudomonas aeruginosa [6]): 1

- MIC (Escherichia coli [1]): 0.39 µM
- MIC (Escherichia coli [2]): > 25 µM
- MIC (Pseudomonas aeruginosa [3]): 25 µM
- MIC (Pseudomonas aeruginosa [4]): 3.13 µM
Structure (SMILES): CO[C@H]1CN(c2nc(-c3cnc(N4CCN[C@H](C)C4)cn3)c(C(=O)O)s2)CC[C@H]1NC(=O)c1[nH]c(C)c(Cl)c1Cl
- Ratio (Escherichia coli [12]): 64
- Ratio (Pseudomonas aeruginosa [6]): 8

- MIC (Escherichia coli [1]): > 64 µg/mL
- IC50 [7]: 1200 nM
- MIC (Escherichia coli [2]): > 64 µg/mL
- MIC (Pseudomonas aeruginosa [3]): > 64 µg/mL
- MIC (Pseudomonas aeruginosa [4]): > 64 µg/mL
- logD [5]: 2.85
- IC50 [13]: 1000 nM
Structure (SMILES): OCC1CCCCN1c1nc(Nc2cc(C3CC3)[nH]n2)c2cn[nH]c2n1 (stereo not drawn)

- MIC (Escherichia coli [1]): 2 µg/mL
- IC50 [7]: < 0.5 nM
- MIC (Escherichia coli [2]): > 64 µg/mL
- MIC (Pseudomonas aeruginosa [3]): > 64 µg/mL
- MIC (Pseudomonas aeruginosa [4]): 1.5 µg/mL
- logD [5]: 3.33
- IC50 [13]: 1 nM
Structure (SMILES): Cn1nc(Nc2nc(N[C@H](CO)c3ccccc3)nc3[nH]ncc23)cc1C(C)(C)C

Structure (SMILES): CC[C@]1(C)C[C@@H](OC(=O)CSc2nnc(N)[nH]2)[C@]2(C)[C@H](C)CC[C@]3(CCC(=O)[C@H]32)[C@@H](C)[C@@H]1O [AZAMULIN]
- MIC (Escherichia coli [1]): 4 µg/mL
- MIC (Escherichia coli [2]): > 64 µg/mL
- Ratio (Staphylococcus aureus [14]): 1
- MIC (Staphylococcus aureus [15]): 2 µg/mL (≈ 4.18 µM)
- MIC (Escherichia coli [11]): 8 µg/mL
- Ratio (Escherichia coli [16]): 2
- MIC (Staphylococcus aureus [17]): 2 µg/mL

- MIC (Escherichia coli [1]): 0.5 µg/mL
- MIC (Escherichia coli [2]): 16 µg/mL
- MIC (Staphylococcus aureus [15]): 32 µg/mL (≈ 52.2 µM)
- MIC (Escherichia coli [11]): 6.4 µg/mL
- MIC (Staphylococcus aureus [17]): > 64 µg/mL
Structure (SMILES): Cc1cc(O)c(C(=O)N[C@@H](C(=O)N[C@@H]2C(=O)N3C(C(=O)O)=C(CSc4nnnn4C)CS[C@H]23)c2ccc(O)cc2)cn1 [CEFPIRAMIDE]
- Ratio (Escherichia coli [16]): 128

Structure (SMILES): CC(C)(O/N=C(\C(=O)N[C@@H]1C(=O)N2C(C(=O)[O-])=C(C[n+]3ccccc3)CS[C@H]12)c1csc(N)n1)C(=O)O [CEFTAZIDIME]
- Ratio (Escherichia coli [12]): 1.6
- MIC (Escherichia coli [1]): 0.5 µM
- MIC (Escherichia coli [2]): 0.8 µM

- MIC (Escherichia coli [1]): 6.25 µM
- MIC (Escherichia coli [2]): 3.13 µM
- MIC (Pseudomonas aeruginosa [3]): < 100 µM
Structure (SMILES): C[C@@H](O)[C@H]1C(=O)N2C(C(=O)O)=C([C@H]3CCCO3)S[C@H]12 [FAROPENEM]

- MIC (Escherichia coli [1]): 0.08 µM
- MIC (Escherichia coli [2]): 0.24 µM
- MIC (Pseudomonas aeruginosa [3]): 5.2 µM
- MIC (Pseudomonas aeruginosa [4]): < 0.08 µM
Structure (SMILES): CC1COc2c(N3CCN(C)CC3)c(F)cc3c(=O)c(C(=O)O)cn1c23 (stereo not drawn) [OFLOXACIN]
- Ratio (Escherichia coli [12]): 3
- Ratio (Pseudomonas aeruginosa [6]): 62

Structure (SMILES): CCCCCC1=C/C(=C/c2[nH]c(-c3ccc[nH]3)cc2OC)N=C1C [PRODIGIOSIN]
- MIC (Escherichia coli [1]): 1 µg/mL
- MIC (Escherichia coli [2]): 2 µg/mL
- Ratio (Staphylococcus aureus [14]): 8
- MIC (Staphylococcus aureus [15]): 2 µg/mL (≈ 6.18 µM)
- MIC (Escherichia coli [11]): > 32 µg/mL
- Ratio (Escherichia coli [16]): 2
- MIC (Staphylococcus aureus [17]): 16 µg/mL
